The source of these data is article PMC6842059 (ChemMedChem, 2019).

Structures are written as SMILES.

A short description of one data set: in vitro. The conditions noted are these: human.

As to `CC(C)CN(C[C@@H](O)[C@H](Cc1ccccc1)NC(=O)O[C@H]1CO[C@H]2OCC[C@H]21)S(=O)(=O)c1ccc(B(O)O)cc1` [Inhibitor 5, (4-(N-((2R,3S)-3-(((((3R,3aS,6aR)-hexahydrofuro[2,3-b]furan-3-yl)oxy)carbonyl)amino)-2-hydroxy-4-phenylbutyl)-N-isobutylsulfamoyl)phenyl)boronic acid], in “in vitro”, the CC50 is > 100 µM. The “selectivity index (CC50/IC50)” value in the data set on MT-2 cells was > 2,040.

`CC(C)CN(C[C@@H](O)[C@H](Cc1ccccc1)NC(=O)O[C@H]1C2CO[C@H]3OC[C@@H]1C3C2)S(=O)(=O)c1ccc(B(O)O)cc1` (stereo partly drawn) [Inhibitor 6, (4-(N-((2R,3S)-3-(((((3S,7aS,8S)-Hexahydro-4H-3,5-methanofuro[2,3-b]pyran-8-yl)oxy)carbonyl)amino)-2-hydroxy-4-phenylbutyl)-N-isobutylsulfamoyl)phenyl)boronic acid]: in the data set “in vitro”, the CC50 is > 100 µM. The “selectivity index (CC50/IC50)” value in the data set on MT-2 cells was > 2,650.
